# According to US20230372350A1, “ASTROCYTIC TRPA1 CHANNEL INHIBITION AS A NOVEL NEUROPROTECTIVE THERAPEUTIC TARGET IN THE PRODROMAL PHASES OF ALZHEIMER'S DISEASE” (priority 2020, published 2023):
# Legend:
# [1] = system: trigeminal neuropathy-like pain behaviors; settings: mice, subcutaneous (100 μg/10 μl) or intragastric (300 mg/kg); Trevisan et al. 2016; cited from earlier work
# human forms of TRPA1 = human forms of TRPA1 (Homo sapiens, UniProt O75762); settings: McNamara et al. 2007, read-out: CI50 (the source's name); cited from earlier work
# Sequence of human forms of TRPA1 (O75762 whole entry): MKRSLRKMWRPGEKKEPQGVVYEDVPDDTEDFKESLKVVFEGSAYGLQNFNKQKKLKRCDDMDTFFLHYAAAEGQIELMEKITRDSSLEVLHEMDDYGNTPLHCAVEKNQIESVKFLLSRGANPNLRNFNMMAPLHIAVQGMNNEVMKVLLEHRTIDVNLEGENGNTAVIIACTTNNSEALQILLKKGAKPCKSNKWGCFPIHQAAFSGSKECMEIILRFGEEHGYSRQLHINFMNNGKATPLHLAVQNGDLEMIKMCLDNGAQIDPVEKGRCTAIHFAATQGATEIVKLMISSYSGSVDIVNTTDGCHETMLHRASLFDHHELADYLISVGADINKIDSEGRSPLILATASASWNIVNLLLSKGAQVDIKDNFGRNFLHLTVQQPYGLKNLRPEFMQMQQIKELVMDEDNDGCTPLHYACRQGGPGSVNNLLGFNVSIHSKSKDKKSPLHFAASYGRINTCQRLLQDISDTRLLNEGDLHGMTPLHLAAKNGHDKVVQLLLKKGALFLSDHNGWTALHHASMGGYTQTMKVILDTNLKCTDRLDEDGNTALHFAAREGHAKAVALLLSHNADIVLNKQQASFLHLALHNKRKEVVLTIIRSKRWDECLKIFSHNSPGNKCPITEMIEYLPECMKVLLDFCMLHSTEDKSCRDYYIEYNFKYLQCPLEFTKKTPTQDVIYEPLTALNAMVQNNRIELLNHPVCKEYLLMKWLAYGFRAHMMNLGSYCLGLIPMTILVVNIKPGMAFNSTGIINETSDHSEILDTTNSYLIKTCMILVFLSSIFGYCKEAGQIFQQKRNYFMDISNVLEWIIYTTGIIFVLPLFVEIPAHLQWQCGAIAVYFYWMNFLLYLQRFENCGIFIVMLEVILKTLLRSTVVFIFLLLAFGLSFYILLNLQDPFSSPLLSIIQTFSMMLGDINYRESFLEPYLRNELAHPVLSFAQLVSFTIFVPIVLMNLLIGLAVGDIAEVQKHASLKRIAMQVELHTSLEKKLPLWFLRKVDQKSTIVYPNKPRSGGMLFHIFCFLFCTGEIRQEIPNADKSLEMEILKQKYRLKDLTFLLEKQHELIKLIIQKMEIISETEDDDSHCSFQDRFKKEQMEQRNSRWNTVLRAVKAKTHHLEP
# CA1 pyramidal neurons = assay: Acute in vitro application on hippocampal slices: CA1 neuronal activity; type: cell-based, mouse; settings: 1-month old APP/PS1-21 animals
# Experimental: Coronal sections of the hippocampus (thickness 300 μm) were prepared from APP/PS1-21 transgenic mice (1 month and 3 months old) or from WT mice from the same litter. The mice were sacrificed by decerebration and decapitation. The brain was quickly removed and sectioned in ice-cold ACSF containing (in mM) : 2.5 KCl, 7 MgCl2, 0.5 CaCl2, 1.2 NaHPO4, 25 NaHCO3, 11D-glucose and 234 sucrose bubbled with 95% of O2 and 5% of CO2 with a V[…] vibratome (Leica, Germany). The sections containing the hippocampus were placed in ACSF containing (in mM) : 126 NaCl, 2.5 KCl, 1.2 MgCl2, 2.5 CaCl2, 1.2 NaH2PO4 bubbled with 95% of O2 and 5% of CO2 and supplemented with 1 mM of sodium pyruvate at room temperature for a recovery period. Whole-cell recordings were performed on visually identified CA1 pyramidal neuron somas. […] The sEPSCs and their kinetics were analyzed, after a stabilization period of 10 minutes, 5 minutes from the recordings. Access resistance was constantly monitored and recordings were excluded from this study when this parameter varied more than 20% during the experiment. Recordings were analyzed using the Clampfit module of pClamp8 software (Molecular Devices, USA) with a single one at 20 pA to exclude miniature sEPSCs.
# [2] = system: hippocampal astrocytes of APP/PS1-21 and WT mice; assay: Chronic intraperitoneal treatment: astrocyte calcium imaging (Fluo-4) in hippocampal slices; type: in vivo, mouse
# Experimental: The used model is a transgenic murine model obtained on a C57BL/6J genetic background which co-expresses the mutated human form of the amyloid precursor protein (mutated APP KM670/671NL) and of presenilin 1 (mutated PS1 L166P) under the control of the neural promoter Thy1. The presence of these two mutations allows increased production of the Aβ peptide from the 14th postnatal day. This leads to cerebral amyloidosis with the appearance of the first senile plaques around 8 postnatal weeks. This amyloid pathology is accompanied by inflammatory gliosis (microgliosis and astrogliosis detectable from 4 months), dendritic spine dystrophy and tau hyperphosphorylation (around 8 months). Cognitive behavioral disorders, and in particular of learning and spatial memory, are developed in around 6 to 8 months. This model was set-up and described by Rebecca Radde in 2006 (Radde et al., EMBO reports, 2006) and is widely used by the scientific community. This model is available in the animal facility of the Institut des Neurosciences de Grenoble and has been bred by the inventors since 2014.
# (§1) This solution is then diluted to 1 μg/μl in an isotonic solution containing 1% Pluronic F-127 and 0.9% NaCl. The animals are injected daily intraperitoneally at a dose of 5 mg/kg of body mass. Sterile 0.5 ml BD MicroFine syringes with no dead volume, equipped with a 30G (0.3 mm) needle are used for the injections.
# The carrier (10% DMSO, 1% Pluronic F-127, 0.9% NaCl) is used as a control and is also injected daily, according to the same procedure, into the WT and APP/PS1 control animals (carrier groups).
# (§2) The injection is started from the 14th postnatal day (appearance of the expression of the Thy1gene promoter in the hippocampus, triggering the overexpression of Aβ in the APP/PS1-21 murine model)
# Coronal sections of the hippocampus (thickness 300 μm) were prepared from APP/PS1-21 transgenic mice (1 month and 3 months old) or from WT mice from the same litter. The mice were sacrificed by decerebration and decapitation. The brain was quickly removed and sectioned in ice-cold ACSF containing (in mM) : 2.5 KCl, 7 MgCl2, 0.5 CaCl2, 1.2 NaHPO4, 25 NaHCO3, 11D-glucose and 234 sucrose bubbled with 95% of O2 and 5% of CO2 with a VT1200S vibratome (Leica, Germany). The sections containing the hippocampus were placed in ACSF containing (in mM) : 126 NaCl, 2.5 KCl, 1.2 MgCl2, 2.5 CaCl2, 1.2 NaH2PO4 bubbled with 95% of O2 and 5% of CO2 and supplemented with 1 mM of sodium pyruvate at room temperature for a recovery period.
# 300 μm coronal sections were transferred to a chamber allowing constant perfusion with ACSF at room temperature, bubbling with 95% of O2 and 5% of CO2 on the upright microscope tray (Eclipse E600 FN, Nikon, France) equipped with a 60× (NA 1.0) water immersion objective and infrared interference contrast optical systems with a CCD camera (Optronis VX45, Germany). 8-11 MSΩ glass pipettes (Harvard Apparatus) were filled with an intracellular solution containing (in mM): 105 K-gluconate, 30 KCl, 10 phosphocreatine, 10 HEPES, 4 ATP-Mg, 0.3 GTP-Tris, 0.2 Fluo-4-pentapotassium salt (Life Technologies), adjusted to pH 7.2 with KOH. The signals were amplified by Axopatch 200B, sampled by a Digidata 1440A interface and recorded by the pClamp8 software (Molecular Devices, USA). Astrocytes were identified on the basis of their morphology, their location in the stratum radiatum and a negative resting potential (between −70 and −80 mV). The membrane potential was maintained at −80 mV. The input resistance was calculated by measuring the current in response to a 10 mV pulse of 80 ms duration near the end of the voltage command.
# WT control animals = assay: Chronic intraperitoneal treatment: overall effect on WT control animals; type: in vivo; settings: daily injection from the 14th to the 90th postnatal day
# Experimental: as §1, §2
# [3] = APP/PS1-21 mice, 1-month old, 5 mg/kg i.p. daily from 14th postnatal day
# [4] = APP/PS1-21 mice, 3 months, chronic treatment 5 mg/kg i.p.
# [5] = WT control mice, 1-month old, 5 mg/kg i.p. daily from 14th postnatal day
# [6] = WT mice, 3 months, chronic treatment 5 mg/kg i.p.
smiles,measurement,setting,value
"CC(C)c1ccc(NC(=O)Cn2cnc3c2c(=O)n(C)c(=O)n3C)cc1 [HC030031, 2-(1,3-Dimethyl-2,6-dioxo-1,2,3,6-tetrahydro-7H-purin-7-yl)-N-(4-isopropylphenyl)acetamide]",trigeminal neuropathy-like pain behaviors,[1],abolished
same,IC50,human forms of TRPA1,~6.2 µM
same,neuronal hyperactivity (CA1),CA1 pyramidal neurons,fully restored
same,calcium event frequency,[2]; [3],0.48±0.02 calcium event/minute
same,proportion of active microdomains,[2]; [3],56.1±3.9%
same,frequency of calcium events within microdomains,[2]; [4],0.50±0.06 event/minute
same,proportion of active microdomains,[2]; [4],49.4±6.4%
same,frequency of calcium events within the microdomains,[2]; [5],0.51±0.02 calcium event/min
same,proportion of active microdomains,[2]; [5],53.0±2.7%
same,frequency of calcium events within microdomains,[2]; [6],0.62±0.04 calcium event/minute
same,proportion of active microdomains,[2]; [6],60.2±3.8%
same,effect at the functional level and at the structural level,WT control animals,no effect
